Series [1] in a line: Antitumor test, reduction in body weight. The series is classed as in vivo, male Balb/c nude mouse. The settings on record: dosage 200 mg/kg, orally one time a day for 5 days, day 7 after starting administration. As to the method: (§1) A cell suspension of a human colorectal cancer cell strain HCT 116 was prepared with a Hunks' balanced salt solution. Its 5.0×10^6 were inoculated subcutaneously to the flank of each male Balb/c nude mouse. When the mean volume of a tumor reached 200 to 250 mm^3, a sample compound was orally administered one time a day for 5 days. The tumor volume was calculated from the calculation formula: 0.5×(minor diameter)^2×(major diameter), and the tumor growth inhibition ratio was calculated from the ratio of the tumor growth of the sample administered group to that of a reference group. The dosage in the antitumor test, the tumor growth inhibition ratio on the final administration day and the reduction in body weight on day 7 after starting administration are shown in Tables 6-1 and 6-2

For series [2], the target named is T1, recombinant Raf-1 protein (activated type GST-Raf-1) (Homo sapiens, UniProt P04049).
T1 construct: fused on or other part: GST tag fused to Raf-1
In words: RAF-1 enzyme inhibition test (33P incorporation into MEK 1 protein). In kind it is biochemical. Particulars: 10 μM ATP, GST-MEK1 substrate, 30° C., 45 minutes; read-out: Raf-1 Enzyme Inhibition, 50% Enzyme Inhibition Concentration (IC50 value). The essentials: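 GST-MEK1 (2 μg) was phosphorylated by activated GST-Raf-1 (25 ng) with 10 μM ATP spiked with 33P-ATP, in Tris-HCl pH 7.5 with DTT, NaCl, KF, vanadate and 10 mM MgCl2, for 45 min at 30° C. Protein was precipitated with TCA and radioactivity counted on filters. IC50 was calculated from inhibition relative to a compound-free reference.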

Series [3] in a line: Solubility to fasted state simulated intestinal fluid. The series is classed as physicochemical. The settings on record: fassif, kinetic from dmso stock, fasted state simulated intestinal fluid (pH 6.5), 37° C. The essentials: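 DMSO stock of compound added to FaSSIF (pH 6.5; taurocholate, phosphatidylcholine, KH2PO4, KCl) and shaken 20 h at 37° C. Filtrate diluted with ethanol:water 2:1 and read by UV absorbance; solubility taken as sample-to-standard absorbance ratio (blank-corrected) × 165 μM standard.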

Series [4] concerns human colorectal cancer cell strain HCT 116. In words: Cell growth inhibition test, HCT 116. The series is classed as cell-based. Particulars: 72 hours, read-out: HCT116, 50% Growth Inhibition Concentration (IC50 value). As to the method:
(§2) Cell Growth Inhibition Test
(§3) With respect to the compounds relating to the present invention and the known compound (BAY 43-9006), cell growth inhibition activity was measured.
(§4) A sample compound was in-series diluted with dimethyl sulfoxide, and then was 1/50 diluted with a Ca^2+- and Mg^2+-free phosphate-bufferized physiological saline and its 20 μL was poured to a 96-well plate. […] Each of these cell suspensions was dividedly poured to the sample added plate in 180 μL/well and cultured in a 5% carbon dioxide incubator at 37° C. After 72 hours, 20 μL of WST-(HCT 116, a product of Dojin) or WST-1 (HUVEC, a product of Roche diagnostics) was added thereto to each well and the absorbance at 450 nm (reference wavelength: 650 nm) was measured. From the growth inhibition ratio of addition of the sample compound to no-addition of the sample compound as a reference, the 50% growth inhibition IC50) of the sample compound was calculated.
(§5) With respect to the group of representative compounds of the present invention, the IC50 values of HCT 116 and HUVEC (VEGF nondependent growth and VEGF dependent growth) are shown in Tables 5-1 to 5-3.

For series [5] the test system is unchanged. In words: Antitumor test, HCT 116 inoculated subcutaneously in nude mouse. In kind it is in vivo, male Balb/c nude mouse. The settings on record: dosage 200 mg/kg, orally one time a day for 5 days, final administration day. As to the method: as §3, §1
The next series deals with VEGF dependent HUVEC. The series can be described thus: Cell growth inhibition test, VEGF dependent HUVEC. The series is classed as cell-based. Particulars: Homo sapiens, 20 ng/mL of VEGF, 72 hours, WST-1, read-out: HUVEC (VEGF Dependence), 50% Growth Inhibition Concentration (IC50 value). As to the method:
as §2, §3, §4, §5
Background: Formazan colour is commonly taken as a measure of viable cells.

The test system of series [6] is VEGF non-dependent human umbilical vein endothelial cells (HUVEC). In words: Cell growth inhibition test, VEGF non-dependent HUVEC. The series is classed as cell-based. Particulars: 72 hours, WST-1, read-out: HUVEC (VEGF Nondependence), 50% Growth Inhibition Concentration (IC50 value). How it is done: as §2, §3, §4, §5

≈ marks a conversion by molar mass, not a printed value.

T1 sequence (P04049 349-648 limits assumed): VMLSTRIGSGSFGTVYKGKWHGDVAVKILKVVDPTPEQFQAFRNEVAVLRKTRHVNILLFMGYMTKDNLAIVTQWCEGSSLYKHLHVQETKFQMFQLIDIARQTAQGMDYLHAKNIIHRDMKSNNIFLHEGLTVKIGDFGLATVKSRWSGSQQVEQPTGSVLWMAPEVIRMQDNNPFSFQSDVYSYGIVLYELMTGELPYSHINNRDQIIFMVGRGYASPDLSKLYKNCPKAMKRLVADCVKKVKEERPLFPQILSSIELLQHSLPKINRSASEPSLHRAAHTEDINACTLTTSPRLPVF

Broadly, the solubility is the dissolved amount per volume that the medium holds. Read a low solubility as a poorly soluble substance. As to `CNc1ncnc2c1ncn2-c1ccc(NC(=O)Nc2ccc(Cl)c(C(F)(F)F)c2)cc1.Cl` [Table 1, Compound 36, 1-(4-Chloro-3-(trifluoromethyl)phenyl)-3-[4-(6-(methylamino)purin-9-yl)phenyl]urea hydrochloride], in series [1], the “Body Weight Reduction ratio (%)” value came out at 5.9%. In addition, the IC50 amounted to 110 nM in series [2], 700 nM in series [4], 79 nM in the series with VEGF dependent HUVEC and 250 nM in series [6]. The same compound returned a solubility at 20 h in series [3] of 22 µg/mL. Further, in series [5], the “Tumor Inhibition Ratio (%)” value was 81%.
`CCCNC(=O)Nc1ncnc2c1ncn2-c1ccc(NC(=O)Nc2ccc(Cl)c(C(F)(F)F)c2)cc1` [Table 1, Compound 119, 1-(9-{4-[3-(4-Chloro-3-(tri-fluoromethyl)phenyl)ureido]-phenyl}-9H-purin-6-yl)-3-propylurea]: in series [1], the “Body Weight Reduction ratio (%)” value is 8.5%. Besides, the IC50 in series [2] came out at 13 nM; in series [4] it was 3700 nM; with VEGF dependent HUVEC, 64 nM; in series [6], 970 nM. Besides, the solubility at 20 h in series [3] was 39 µg/mL (≈ 73.2 µM). In addition, the “Tumor Inhibition Ratio (%)” value in series [5] is 89%.
For the compound `CNc1ncnc2c1ncn2-c1ccc(NC(=O)Nc2cc(CN3CCN(C)CC3)cc(C(F)(F)F)c2)cc1` [Table 2, Compound 25, 1-[4-(6-(Methylamino)purin-9-yl)phenyl]-3-[3-(4-methyl-piperazin-1-ylmethyl)-5-(tri-fluoromethyl)phenyl]urea], in series [1], the “Body Weight Reduction ratio (%)” value was determined as 2.7%. Also, the IC50 in series [2] worked out at 110 nM; in series [4], 1700 nM; in the series on VEGF dependent HUVEC, 280 nM; in series [6], 1700 nM. The solubility at 20 h in series [3] was 158 µg/mL (≈ 293 µM). The “Tumor Inhibition Ratio (%)” value in series [5] is 80%.
Take `CNc1ncnc2c1ncn2-c1ccc(NC(=O)Nc2cc(CN(C)C)cc(C(F)(F)F)c2)cc1` [Table 2, Compound 30, 1-(3-Dimethylaminomethyl-5-(trifluoromethyl)phenyl)-3-[4-(6-(methylamino)purin-9-yl)-phenyl]urea]: in series [1], the “Body Weight Reduction ratio (%)” value is on record as 5.7%. Besides, in series [2], the IC50 turned out to be 190 nM. Moreover, the solubility at 20 h in series [3] is 105 µg/mL (≈ 217 µM). Besides, the “Tumor Inhibition Ratio (%)” value in series [5] worked out at 131%.
Regarding `CN1CCN(Cc2cc(NC(=O)Nc3ccc(-n4cnc5c(N)ncnc54)cc3)cc(C(F)(F)F)c2)CC1` [Table 2, Compound 26], the “Body Weight Reduction ratio (%)” value in series [1] is 5.0%. Moreover, the IC50 in series [2] was determined as 83 nM. The compound further showed a solubility at 20 h in series [3] of 61 µg/mL (≈ 116 µM). Also, the “Tumor Inhibition Ratio (%)” value in series [5] is listed as 72%.
As for `CNC(=O)c1nccc2c1ncn2-c1ccc(NC(=O)Nc2ccc(Cl)c(C(F)(F)F)c2)cc1` [Table 1, Compound 93, 1-{4-[3-(4-Chloro-3-(trifluoro-methyl)phenyl)ureido]phenyl}-1H-imidazo[4,5-c]pyridine-4-carboxylic acid methylamide], the “Body Weight Reduction ratio (%)” value in series [1] came to 6.0%. Also, the IC50 in series [2] amounted to 53 nM. Further, the “Tumor Inhibition Ratio (%)” value in series [5] is reported as 79%.

The record behind these values is patent US8609656B2, “Heteroarylphenylurea derivative” (Chugai Seiyaku Kabushiki Kaisha, priority 2004, dated 2013).
